Source: PubChem BioAssay (NCI)
“And” between values parts separate entries of the source, which are not always exact repeats. Identical values can stand only once.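 Cells were grown in 96-well plates and exposed to each compound for 48 hours at five concentrations; endpoints were interpolated linearly between bracketing concentrations, or set to the highest concentration if not reached. The concentration for 50% growth inhibition is given as GI50. TGI: concentration producing complete growth inhibition.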 Where a SMILES comes first, the peptide text is derived from it. The star is where a group is joined. Boc = CC(C)(C)OC(=O)*

Columns and labels:
Experiment in all cases: growth of human tumour cells (NCI), 48 h
COLO 205 colon = tested on: COLO 205 colon
HCT-116 colon = tested on: HCT-116 colon
RPMI-8226 leukemia = tested on: RPMI-8226 leukemia
HOP-62 NSCLC = tested on: HOP-62 NSCLC
OVCAR-4 ovarian = tested on: OVCAR-4 ovarian
SF-295 CNS = tested on: SF-295 CNS
NCI-H522 lung = tested on: NCI-H522 lung
HT29 colon = tested on: HT29 colon
EKVX NSCLC = tested on: EKVX NSCLC
M14 melanoma = tested on: M14 melanoma

Compound	TGI (COLO 205 colon)	TGI (HCT-116 colon)	TGI (RPMI-8226 leukemia)	TGI (HOP-62 NSCLC)	TGI (OVCAR-4 ovarian)	TGI (SF-295 CNS)	TGI (NCI-H522 lung)	TGI (HT29 colon)	TGI (EKVX NSCLC)	TGI (M14 melanoma)	GI50 (HCT-116 colon) [µM]	GI50 (SF-295 CNS) [µM]	GI50 (COLO 205 colon)	GI50 (RPMI-8226 leukemia)
CC(=O)Oc1ccc2c3c1O[C@H]1[C@H](O)CC[C@@]4(O)[C@@H](C2)N(C)CC[C@]314	> 100 µM	> 100 µM	> 100 µM	> 100 µM	> 100 µM	> 100 µM	> 100 µM	> 100 µM	> 100 µM	> 100 µM	–	–	–	–
CNC1(C(=O)O)CC1	–	> 100 µM	> 100 µM	> 100 µM	> 100 µM	> 100 µM	> 100 µM	> 100 µM	> 100 µM	> 100 µM	–	–	–	–
CC1(C)N=C(C2CCCN2C(=O)OCc2ccccc2)OC1=O (stereo unspecified)	> 100 µM	> 100 µM	> 100 µM	> 100 µM	–	> 100 µM	> 100 µM	> 100 µM	–	> 100 µM	–	–	–	–
CC1C(C#N)(C#N)C(C#N)=C(N)C1(Cl)[N+](=O)[O-] (stereo unspecified)	18.5 µM	20.3 µM	39.8 µM	9.72 µM	25.8 µM	36.1 µM	6.1 µM	23.5 µM	41.4 µM	22.1 µM	–	–	–	–
COC(=O)[C@H](Cc1ccc(O)cc1)NC(=O)[C@H](Cc1ccc(O)cc1)NC(=O)OC(C)(C)C (Boc-Tyr-Tyr-OMe)	> 100 µM	> 100 µM	–	> 100 µM	–	> 100 µM	> 100 µM	> 100 µM	> 100 µM	> 100 µM	–	–	–	–
Cc1cnc2[nH]c(-c3ccc4ccccc4c3)cc(=O)c2c1	18.6 µM	14.5 µM	> 100 µM	> 100 µM	> 100 µM	> 100 µM	2.25 µM	> 100 µM	–	> 100 µM	0.465	0.549	–	–
COc1cc(C2c3cc4c(cc3[C@@H](NCCN3CCOCC3)C3COC(=O)[C@H]23)OCO4)cc(OC)c1O (stereo partly specified)	19.4 µM and > 17.5 µM	15.8 µM and > 17.5 µM	6.58 µM and 9.59 µM	2.71 µM and 3.8 µM	39.3 µM and > 17.5 µM	13.5 µM and 17.4 µM	13.1 µM and 9.66 µM	18.1 µM and > 17.5 µM	54.4 µM and > 17.5 µM	11.7 µM and > 17.5 µM	–	–	8.01 µM and 1.95 µM	0.855 µM and 1.81 µM
O=C(OCCNC(=O)N1CC1)OCCNC(=O)N1CC1	> 10 µM	> 10 µM	> 10 µM	> 10 µM	> 10 µM	> 10 µM	> 10 µM	> 10 µM	> 10 µM	> 10 µM	–	–	–	–
COc1cccc(/C=C2\S/C(=N/Nc3nc(-c4ccc([N+](=O)[O-])cc4)cs3)NC2=O)c1O	33 µM	27.8 µM	35.2 µM	34.1 µM	–	38.7 µM	–	52.6 µM	43 µM	33.2 µM	–	–	–	–
CSc1nc2c(c(=O)[nH]1)N=C(c1ccccc1)CC(c1ccccc1)N2 (stereo unspecified)	> 100 µM	97.5 µM	71 µM	> 100 µM	95.2 µM	> 100 µM	43.9 µM	> 100 µM	> 100 µM	> 100 µM	–	–	–	–
c1ccc(CSC2(SCc3ccccc3)CCCCC2)cc1	> 10 µM	> 10 µM	> 10 µM	> 10 µM	> 10 µM	> 10 µM	> 10 µM	> 10 µM	> 10 µM	> 10 µM	–	–	–	–
